# Results as given in BindingDB's records for doi:10.1016/j.bmc.2013.03.060 (Meijo University, 2013).
# Biological target: T1, Androgen receptor (Homo sapiens, UniProt P10275)
# T1 sequence (P10275 whole entry): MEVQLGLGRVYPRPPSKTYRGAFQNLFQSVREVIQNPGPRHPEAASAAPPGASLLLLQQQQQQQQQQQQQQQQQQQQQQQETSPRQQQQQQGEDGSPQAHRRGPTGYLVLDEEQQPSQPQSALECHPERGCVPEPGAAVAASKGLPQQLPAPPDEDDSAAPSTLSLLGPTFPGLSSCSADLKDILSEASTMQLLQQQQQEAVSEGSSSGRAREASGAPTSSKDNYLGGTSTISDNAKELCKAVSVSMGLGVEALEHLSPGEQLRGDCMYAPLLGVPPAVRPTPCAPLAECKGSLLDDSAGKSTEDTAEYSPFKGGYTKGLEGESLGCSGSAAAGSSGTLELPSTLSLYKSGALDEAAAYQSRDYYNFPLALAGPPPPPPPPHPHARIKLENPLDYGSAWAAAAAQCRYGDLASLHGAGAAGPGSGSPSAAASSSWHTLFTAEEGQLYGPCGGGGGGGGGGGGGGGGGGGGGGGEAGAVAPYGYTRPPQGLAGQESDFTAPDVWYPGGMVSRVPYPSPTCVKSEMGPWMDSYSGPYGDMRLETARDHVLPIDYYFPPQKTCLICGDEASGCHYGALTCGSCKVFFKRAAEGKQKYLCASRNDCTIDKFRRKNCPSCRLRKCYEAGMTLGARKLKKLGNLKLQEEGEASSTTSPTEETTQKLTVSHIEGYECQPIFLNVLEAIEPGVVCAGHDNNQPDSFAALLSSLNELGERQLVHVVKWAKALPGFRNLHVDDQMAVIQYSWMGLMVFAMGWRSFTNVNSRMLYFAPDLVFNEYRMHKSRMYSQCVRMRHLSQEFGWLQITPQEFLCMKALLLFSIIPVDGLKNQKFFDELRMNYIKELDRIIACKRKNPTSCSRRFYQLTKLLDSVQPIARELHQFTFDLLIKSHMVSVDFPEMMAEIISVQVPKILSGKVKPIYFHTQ
# Experiment: Antagonist activity at human androgen receptor LBD expressed in human MDA-kb2 cells by luciferase reporter gene assay
row,IC50 [nM],SMILES
1,851,CN(C)c1ccc(-c2cc(O)c3c(=O)cccc-3o2)cc1
2,851,O=c1cccc2oc(-c3ccc(O)cc3)cc(O)c1-2 [5-hydroxy-2-(4-hydroxyphenyl)-4H-chromen-4-one]
